Columns and labels:
STING [1] = biological target: T1, STING (Homo sapiens, UniProt Q86WV6); assay: Western Blot analysis for STING degradation (DC50) in HFF-1 cells; format: cell-based; design: host or cells: HFF-1 human foreskin fibroblasts; conditions: 24h; reference protein beta-actin
Experimental: To assess STING degradation in human foreskin fibroblasts HFF-1 cells (ATCC, SCRC-1041) cells were seeded at a density of 60.000 cells/well in 24-well Nunclon Delta surface treated culture plate in DMEM growth medium (supplemented with 10% FBS, 1% Pen-strep). Cells were incubated over-night at 37°C 5% CO2 to allow adhesion. Next day growth medium was renewed and a 5x concentration of test compounds (2.5% DMSO) diluted in growth medium were added to the appropriate well. The final DMSO concentration were 0.5%. Cell culture plates were returned to the incubator for additional 24h.
For cell lysing for Western Blot analysis cell culture plates were brought to ice, supernatant was removed by aspiration and cells washed 2x in ice-cold DPBS. Cells were lysed in 65 µL of RIPA buffer supplemented with cOmplete ULTRA Tablets protease inhibitor cocktail, PIERCE Phosphatase inhibitor mini tablet, Benzonase and 10mM NaF for 20 min on ice. Lysates were collected, cleared by centrifugation (13000xg for 10 min at 4°C). Samples were either analysed directly or stored at -80°C until analysis.
For Western Blotting, total protein concentration in each lysate was determined using PIERCE Gold BCA Assay kit according to manufactures protocol. 6 µg of total protein was mixed with 2x Laemmli buffer containing DTT, boiled for 5 min at 95°C, cooled on ice and loaded into each well of a 4-20% Criterion TGX gel. Proteins were separated by electrophoresis, by running for 1h at 150V. After separation proteins were blotted onto a PVDF membrane by semi-dry transfer using Trans-Blot turbo system at pre-defined BioRad MIDI protocol; 25V, 1A (fixed) for 30 min. Membranes were blocked for 1h in 5% skim milk in TBS-T20 on a rocker at room temperature followed by washing and exposure to primary antibodies against human STING 1:1000 (Cell Signalling, #13647) or loading controls Vinculin 1:1000 (Cell Signalling, #13901) or beta-Actin 1:10000 (Sigma, A5441) all diluted in 5% BSA in TBS-T20. Membranes were probed over night at 4°C on a rocker. Membranes were washed 3x in TBS-T20 followed by exposure to secondary HRP-conjugated anti-rabbit antibody or HRP-conjugated anti-mouse antibody diluted 1:10000 in 5% skim milk in TBS-T20 as appropriate. Membranes were incubated for 1h at room temperature on a rocker, then washed 3x in TBS-T20.
For generating DC50 values, the intensity of individual bands was measured using imaged and expression levels were calculated as a ratio of STING intensities vs. Reference protein intensities and normalized to DMSO control. The normalized ratios were plotted on a XY curve in GraphPad Prism where DC50 was estimated using a 4-parameter non-linear regression fitting curve.

[2] = biological target: T2, C-terminal domain (CTD) of human STING (Homo sapiens, UniProt Q86WV6); assay: STING binding FP assay III; design: recombinant human STING protein (155-379); conditions: 10 nM STING (FP assay III according to the text); read-out: STING binding FP assay II, IC50
Experimental: (§1) The interaction between molecules and the C-terminal domain (CTD) of human STING was evaluated using a competition binding assay. In this assay, recombinant human STING protein (155-379) and a STING binding fluorescent probe were employed. Upon binding of the probe to STING, the rotation of the fluorescent probe is slowed due to the larger molecular size of the protein-bound complex. As a result, emitted light retains its plane of polarization, leading to an increase in fluorescence polarization. Molecules competing for the probe binding site displace the probe, which leads to rapid randomization of the polarization plane of the emitted light and a subsequent decrease in measured fluorescence polarization signal. Change in polarization was measured, allowing a comparative evaluation of the binding affinities of different compounds to the target protein.
(§2) The assay was performed in 96-well plates (ThermoFisher, cat.# 237108) containing 100µl : 10 µL test compound in 10% DMSO and buffer A (150 mM NaCl, 50 mM HEPES pH 7.5, 1 mM DTT) + 90 µL prepared master mix solution of: 4 nM fluorescein-labelled STING ligand (Probe 1; synthesis described above) in buffer A + 0.055% Tween-20 (v/v) and 35 nM STING in buffer A. Post mixing, plates were agitated at 600rpm and incubated for 20 min at room temperature. Subsequent measurements of the fluorescence polarization signal were made on a BioTek Synergy-H1 plate reader, using a polarization filter; Exc: 485/20 nm, Em: […]) with a gain-setting of 75. IC50 values were determined using a standard non-linear regression four-parameter curve fit in Graphpad Prism.
The procedure for STING binding FP assay III is the same as described for STING binding FP assay I, except for a lower STING concentration. In STING binding FP assay III, a concentration of 10 nM STING in buffer A was used.

[3] = biological target: T2, C-terminal domain (CTD) of human STING; assay: STING binding FP assay II; design: recombinant human STING protein (155-379); conditions: 7 nM STING
Experimental: as §1, §2
The procedure for STING binding FP assay II is the same as described for STING binding FP assay I, except for a lower STING concentration. In STING binding FP assay II, a concentration of 7 nM STING in buffer A was used.

STING [4] = biological target: T1, STING; assay: Western Blot analysis of inhibition of STING activation in HFF-1 cells; format: cell-based; design: host or cells: HFF-1 human foreskin fibroblasts; conditions: for STING, TBK1 and IRF1 phosphorylation: 2 h or 5 h
Experimental: To assess whether S1 STING ligands inhibit STING activation, primary human skin fibroblasts (Figure 5) or HFF-1 cells (Figure 6) were treated with various compounds which comprise only an S1 ligand domain and a Linker domain before undergoing Western Blot analysis as described below.
The cells were lysed and analysed on WB. […] The WB membrane was probed for p-STING, STING, p-IRF3, p-TBK1, and Vinculin.

T2 sequence (Q86WV6 155-379): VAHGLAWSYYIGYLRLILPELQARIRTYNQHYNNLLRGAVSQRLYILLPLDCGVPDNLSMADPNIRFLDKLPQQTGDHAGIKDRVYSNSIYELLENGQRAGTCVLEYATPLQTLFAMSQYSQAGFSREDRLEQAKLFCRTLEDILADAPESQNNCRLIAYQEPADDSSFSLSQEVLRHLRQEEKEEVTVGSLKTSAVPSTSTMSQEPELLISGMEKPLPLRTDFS
T1 sequence (Q86WV6 whole entry): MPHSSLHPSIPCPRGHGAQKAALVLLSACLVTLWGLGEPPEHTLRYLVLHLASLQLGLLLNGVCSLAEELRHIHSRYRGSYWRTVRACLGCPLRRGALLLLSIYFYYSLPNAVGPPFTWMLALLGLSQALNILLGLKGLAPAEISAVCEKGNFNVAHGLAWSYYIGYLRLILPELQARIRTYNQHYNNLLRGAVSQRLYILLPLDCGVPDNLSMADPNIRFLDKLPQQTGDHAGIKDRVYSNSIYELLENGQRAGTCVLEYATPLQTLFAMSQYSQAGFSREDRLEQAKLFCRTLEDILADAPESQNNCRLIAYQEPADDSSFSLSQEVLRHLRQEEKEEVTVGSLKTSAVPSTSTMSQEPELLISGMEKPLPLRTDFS

Compound	DC50 (STING [1]) [nM]	IC50 [2] [nM]	IC50 [3] [nM]	other results
CCn1nc(C)cc1C(=O)/N=c1\n(C)c2cc(C(N)=O)ccc2n1CCC(CCn1/c(=N/C(=O)c2cc(C)nn2CC)n(C)c2cc(C(N)=O)ccc21)OCC(=O)NCCOCCOCC(=O)N[C@H](C(=O)N1C[C@H](O)C[C@H]1C(=O)NCc1ccc(-c2scnc2C)cc1)C(C)(C)C (stereo partly shown) [Example 15]	–	–	1.7	–
CCn1nc(C)cc1C(=O)N=c1n(C)c2cc(C(N)=O)ccc2n1CCC(CCn1c(=NC(=O)c2cc(C)nn2CC)n(C)c2cc(C(N)=O)ccc21)OCC(=O)NCCOCCOCCOCCOCCC(=O)NCCOCCOCCOCCOCCOc1cccc(C(=O)c2csc([C@@H]3CCCN3C(=O)[C@@H](NC(=O)[C@H](C)NC)C3CCCCC3)n2)c1 (stereo partly shown) [Example 17]	–	–	7.9	–
CCn1nc(C)cc1C(=O)N=c1n(C)c2cc(C(N)=O)ccc2n1CCC(CCn1c(=NC(=O)c2cc(C)nn2CC)n(C)c2cc(C(N)=O)ccc21)OCC(=O)N1CCOC[C@@H]1c1ccccc1 (stereo partly drawn) [Example A30, 1-(3-{2-[(S)-3-Phenyl-4-morpholinyl]-2-oxoethoxy}-5-{5-carbamoyl-2-[(1-ethyl-3-methyl-5-pyrazolyl)carbonylimino]-3-methyl-2,3-dihydro-1H-1,3-benzimidazol-1-yl}pentyl)-2-[(1-ethyl-3-methyl-5-pyrazolyl)carbonylimino]-3-methyl-2,3-dihydro-1H-1,3-benzimidazole-5-carboxamide]	–	–	–	STING, TBK1 and IRF1 phosphorylation (STING [4]; 5 µM for 15 min prior to 300 nM diABZI): lower compared to cells treated with diABZI c3 alone; STING, TBK1 and IRF1 phosphorylation (STING [4]; 5 µM for 15 min prior to 8 µg/mL cGAMP): lower compared to cells treated with cGAMP alone; phosphorylation of STING, IRF1 or TBK1 (agonism) (STING [4]; compound as single agent, no activation): no phosphorylation of STING, IRF1 or TBK1 was observed

More lines, main results first:

DC50 (STING [1]) [nM]	IC50 [2] [nM]	IC50 [3] [nM]	Compound	other results
200 to 1000	–	–	CCn1nc(C)cc1C(=O)N=c1n(C)c2cc(C(N)=O)ccc2n1CCC(CCn1c(=NC(=O)c2cc(C)nn2CC)n(C)c2cc(C(N)=O)ccc21)OCC(=O)NCCOCCOCCOCCOCCOCCNc1cccc2c1C(=O)N(C1CCC(=O)NC1=O)C2=O (stereo not shown) [Example 3, 1-(3-{[N-2-(2-{2-[2-(2-{2-[2-(2,6-Dioxo-3-piperidyl)-1,3-dioxo-4-isoindolinylamino]ethoxy}ethoxy)ethoxy]ethoxy}ethoxy)ethylcarbamoyl]methoxy}-5-{5-carbamoyl-2-[(1-ethyl-3-methyl-5-pyrazolyl)carbonylimino]-3-methyl-2,3-dihydro-1H-1 ,3-benzimidazol-1-yl}pentyl)-2-[(1-ethyl-3-methyl-5-pyrazolyl)carbonylimino]-3-methyl-2,3-dihydro-1H-1,3-benzimidazole-5-carboxamide]	–
200 to 1000	2.6	–	CCn1nc(C)cc1C(=O)N=c1n(C)c2cc(C(N)=O)ccc2n1CCC(CCn1c(=NC(=O)c2cc(C)nn2CC)n(C)c2cc(C(N)=O)ccc21)OCC(=O)NCCOCCOCCOCCOCCC(=O)NCCOCCNc1cccc2c1C(=O)N(C1CCC(=O)NC1=O)C2=O (stereo not shown) [Example 6, N-(2-{2-[2-(2,6-Dioxo-3-piperidyl)-1,3-dioxo-4-isoindolinylamino]ethoxy}ethyl)15-{[(3-{5-carbamoyl-2-[(1-ethyl-3-methyl-5-pyrazolyl)carbonylimino]-3-methyl-2,3-dihydro-1H-1 ,3-benzimidazol-1-yl}-1-(2-{5-carbamoyl-2-[(1-ethyl-3-methyl-5-pyrazolyl)carbonylimino]-3-methyl-2,3-dihydro-1H-1 ,3-benzimidazol-1-yl}ethyl)propoxy)methyl]carbonylamino}-4,7,10,13-tetraoxapentadecanamide]	–
< 200	5.3	–	CCn1nc(C)cc1C(=O)N=c1n(C)c2cc(C(N)=O)ccc2n1CCC(CCn1c(=NC(=O)c2cc(C)nn2CC)n(C)c2cc(C(N)=O)ccc21)OCC(=O)NCCOCCOCCOCCOCCC(=O)NCCOCCOCCOCCNc1cccc2c1C(=O)N(C1CCC(=O)NC1=O)C2=O (stereo not shown) [Example 11, N-{2-[2-(2-{2-[2-(2,6-Dioxo-3-piperidyl)-1,3-dioxo-4-isoindolinylamino]ethoxy}ethoxy)ethoxy]ethyl}15-{[(3-{5-carbamoyl-2-[(1-ethyl-3-methyl-5-pyrazolyl)carbonylimino]-3-methyl-2,3-dihydro-1H-1,3-benzimidazol-1-yl}-1-(2-{5-carbamoyl-2-[(1-ethyl-3-methyl-5-pyrazolyl)carbonylimino]-3-methyl-2,3-dihydro-1H-1,3-benzimidazol-1-yl}ethyl)propoxy)methyl]carbonylamino}-4,7,10,13-tetraoxapentadecanamide]	–
–	–	2.1	CCn1nc(C)cc1C(=O)N=c1n(C)c2cc(C(N)=O)ccc2n1CCC(CCn1c(=NC(=O)c2cc(C)nn2CC)n(C)c2cc(C(N)=O)ccc21)OCC(=O)NCCOCCOCCNc1cccc2c1C(=O)N(C1CCC(=O)NC1=O)C2=O (stereo not shown) [Example 12, 1-(3-{[N-2-(2-{2-[2-(2,6-Dioxo-3-piperidyl)-1,3-dioxo-4-isoindolinylamino]ethoxy}ethoxy)ethylcarbamoyl]methoxy}-5-{5-carbamoyl-2-[(1-ethyl-3-methyl-5-pyrazolyl)carbonylimino]-3-methyl-2,3-dihydro-1H-1,3-benzimidazol-1-yl}pentyl)-2-[(1-ethyl-3-methyl-5-pyrazolyl)carbonylimino]-3-methyl-2,3-dihydro-1H-1 ,3-benzimidazole-5-carboxamide]	–
200 to 1000	2.9	–	CCn1nc(C)cc1C(=O)N=c1n(C)c2cc(C(N)=O)ccc2n1CCC(CCn1c(=NC(=O)c2cc(C)nn2CC)n(C)c2cc(C(N)=O)ccc21)OCC(=O)NCCOCCOCCOCCOCCC(=O)NCCOCCOCCNc1cccc2c1C(=O)N(C1CCC(=O)NC1=O)C2=O (stereo not shown) [Example 23, N-[2-(2-{2-[2-(2,6-Dioxo-3-piperidyl)-1,3-dioxo-4-isoindolinylamino]ethoxy}ethoxy)ethyl]15-{[(3-{5-carbamoyl-2-[(1-ethyl-3-methyl-5-pyrazolyl)carbonylimino]-3-methyl-2,3-dihydro-1H-1,3-benzimidazol-1-yl}-1-(2-{5-carbamoyl-2-[(1-ethyl-3-methyl-5-pyrazolyl)carbonylimino]-3-methyl-2,3-dihydro-1H-1,3-benzimidazol-1-yl}ethyl)propoxy)methyl]carbonylamino}-4,7,10,13-tetraoxapentadecanamide]	–

From patent publication EP4663632A1, “COMPOUNDS USEFUL FOR THE MODULATION OF THE ACTIVITY OF STING” (Sulis Therapeutics ApS, priority 2024, dated 2025)
